Measured values published in PMC10235067, “Increased renal elimination of endogenous and synthetic pyrimidine nucleosides in concentrative nucleoside transporter 1 deficient mice” (Nature Communications, 2023).
“And” between values parts separate entries of the source, which are not always exact repeats. Identical values can stand only once. Counter-ions that a name gives are not always drawn.

Experiments:
[1] = Gemcitabine plasma pharmacokinetics in Slc28a1+/+ and Slc28a1-/- mice; settings: for half-life: T1/2 (terminal half-life); for Vd: Vss
KPC cells = assay: Survival of mice with orthotopic syngeneic KPC pancreatic tumors treated with dFdC
[2] = Gemcitabine urine pharmacokinetics (renal excretion) in Slc28a1+/+ and Slc28a1-/- mice
Description: THU was added to the mouse urine samples upon collection and frozen until analysis. […] Five microliters of the diluted samples were transferred to a 96-well autosampler plate then 10 µL of internal standard mixture was added and mixed. […] The plate was then transferred to the 4 °C autosampler for analysis.
The chromatographic separation was performed on a Thermo Accucore aQ 2.6 µm, 100 ×2.1 mm column at 30 °C using a gradient with a 10 µL injection volume. The mobiles phases were 1 mM ammonium acetate in deionized water pH 6.8 and acetonitrile. The total run time was 5.5 min. […] The LC–MS/MS analysis was conducted on a Thermo Vanquish UHPLC with a TSQ Quantiva mass spectrometer equipped with an electrospray ionization source.

[3] = Gemcitabine in plasma, WT mice, iv gemcitabine 50mg/kg, per mouse
[4] = Slc28a1-/- mice, single i.v. dFdC 50 mg/kg
[5] = female, mouse, plasma, iv, 50 mg/kg, Slc28a1+/+ mice, plasma, single i.v. dFdC 50 mg/kg
[6] = female, mouse, plasma, iv, 50 mg/kg, Slc28a1-/- mice, single i.v. dFdC 50 mg/kg

Structure (SMILES): Nc1ccn([C@@H]2O[C@H](CO)[C@@H](O)C2(F)F)c(=O)n1 [dFdC, Gemcitabine hydrochloride, reference compound]
- MRTlast [1, 3]: 31.2438 min and 19.7651 min and 14.1643 min and 13.018 min and 12.1604 min and 16.5905 min
- Tlast [1, 3]: 240 min and 120 min
- Tmax [1, 3]: 15 min
- Vss_obs [1, 3]: 56.2718 L/kg and 101.954 L/kg and 10.8018 L/kg and 7.47626 L/kg and 7.87812 L/kg and 9.11723 L/kg
- Vss_pred [1, 3]: 57.954 L/kg and 102.794 L/kg and 10.4424 L/kg and 7.27861 L/kg and 7.52393 L/kg and 8.81315 L/kg
- Vz_obs [1, 3]: 184.58 L/kg and 386.714 L/kg and 15.7633 L/kg and 11.2559 L/kg and 13.087 L/kg and 11.7142 L/kg
- Vz_pred [1, 3]: 183.332 L/kg and 385.636 L/kg and 15.8341 L/kg and 11.2918 L/kg and 13.154 L/kg and 11.7784 L/kg
- AUC (Last) ([1]; Slc28a1+/+ mice, plasma, single i.v. dFdC 50 mg/kg): 81307.3 ± 4123.2 ng x min/mL and 81307 ng x min/mL
- AUC (Last) ([1]; Slc28a1-/- mice, plasma, single i.v. dFdC 50 mg/kg): 52203.2 ± 3611.3 ng x min/mL and 52203 ng x min/mL
- CL (systemic clearance) [1, 4]: 950 mL/min/kg
- concentration at 10 min ([1]; female, mouse, plasma, intravenous, 50 mg/kg, Cp (Gemcitabine), KO mice, single iv gemcitabine 50mg/kg, 10 min): 1.94 µg/mL
- concentration at 60 min ([1]; female, mouse, plasma, intravenous, 50 mg/kg, Cp (Gemcitabine), KO mice, single iv gemcitabine 50mg/kg, 60 min): 0.0288 µg/mL
- AUC(0-inf) ([1]; female, mouse, plasma, iv, 50 mg/kg, AUCINF_obs, Gemcitabine in plasma, WT mice, iv gemcitabine 50mg/kg, per mouse): 1120 ng·h/mL
- AUC(0-inf) ([1]; female, mouse, plasma, iv, 50 mg/kg, AUCINF_pred, Gemcitabine in plasma, WT mice, iv gemcitabine 50mg/kg, per mouse): 1130 ng·h/mL
- AUC ([1]; female, mouse, plasma, iv, 50 mg/kg, AUCall, Gemcitabine in plasma, WT mice, iv gemcitabine 50mg/kg, per mouse): 1010 ng·h/mL
- AUC(0-t) ([1]; female, mouse, plasma, iv, 50 mg/kg, AUClast, Gemcitabine in plasma, WT mice, iv gemcitabine 50mg/kg, per mouse): 1010 ng·h/mL
- clearance ([1]; female, mouse, plasma, iv, 50 mg/kg, CL (systemic clearance), Slc28a1+/+ mice, single i.v. dFdC 50 mg/kg): 607 mL/min/kg
- clearance ([1]; female, mouse, plasma, iv, 50 mg/kg, CL (systemic clearance), Slc28a1-/- mice, single i.v. dFdC 50 mg/kg): 951 ± 167 mL/min/kg
- clearance ([1]; female, mouse, plasma, iv, 50 mg/kg, Cl_obs, Gemcitabine in plasma, WT mice, iv gemcitabine 50mg/kg, per mouse): 745 mL/min/kg
- Cmax [1, 5]: 3.65 ± 0.408 µg/mL
- Cmax [1, 6]: 3.12 ± 0.335 µg/mL
- half-life [1, 5]: 13.6 ± 0.67 min
- half-life [1, 6]: 11.5 ± 0.81 min
- Tmax ([1]; female, mouse, plasma, iv, 50 mg/kg, Tmax, Slc28a1+/+ mice, plasma, single i.v. dFdC 50 mg/kg): ~5 min
- Tmax ([1]; female, mouse, plasma, iv, 50 mg/kg, Tmax, Slc28a1-/- mice, single i.v. dFdC 50 mg/kg): ~5 min
- Vd ([1]; female, mouse, plasma, iv, 50 mg/kg, Slc28a1+/+ mice, single i.v. dFdC 50 mg/kg): 14.4 L/kg
- Vd [1, 6]: 14.1 L/kg
- Cp (Gemcitabine) ([1]; plasma, KO mice, single iv gemcitabine 50mg/kg, 10 min): 2.50577 µg/mL and 1.69901 µg/mL and 1.48777 µg/mL and 1.7432 µg/mL and 1.81705 µg/mL
- Cp (Gemcitabine) ([1]; plasma, KO mice, single iv gemcitabine 50mg/kg, 60 min): 0.0303338 µg/mL and 0.0295353 µg/mL and 0.0273213 µg/mL and 0.0282215 µg/mL and 0.0275324 µg/mL
- Survival, Days (individual mice) (KPC cells; CNT1 (Slc28a1-/-) Gemcitabine (25mg/ml) group, Fig. 6E source data): 27 days and 32 days and 35 days and 39 days
- Survival, Days (individual mice) (KPC cells; CNT1 (Slc28a1-/-) Gemcitabine (37mg/ml) group, Fig. 6E source data): 30 days and 43 days and 45 days and 46 days
- Survival, Days (individual mice) (KPC cells; CNT1 (Slc28a1-/-) Gemcitabine group, Fig. 6D source data): 26 days and 43 days and 35 days and 23 days and 45 days
- Survival event flag (1 = event, 0 = censored), individual mice (KPC cells; CNT1 + Gemcitabine (Slc28a1-/-), Fig. 6D source data): 1
- Survival event flag (1 = event, 0 = censored), individual mice (KPC cells; CNT1 Gemcitabine (25mg/ml), Fig. 6E source data, column headed CNT1 + Vehicle): 1
- Survival event flag (1 = event, 0 = censored), individual mice (KPC cells; CNT1 Gemcitabine (37mg/ml), Fig. 6E source data): 1
- mice remaining healthy at day 45 (KPC cells; Slc28a1+/+ mice, dFdC 25 mg/kg i.v.): approximately 66%
- median overall survival (KPC cells; Slc28a1+/+ mice, dFdC 25 mg/kg i.v. twice a week, Fig. 6D): > 50 days
- day by which all mice died (KPC cells; Slc28a1-/- mice, dFdC 25 mg/kg i.v.): ≤ 45 days
- median overall survival (KPC cells; Slc28a1-/- mice, dFdC 25 mg/kg i.v. twice a week, Fig. 6D): 39 days
- median overall survival (KPC cells; Slc28a1-/- mice, dFdC 37 mg/kg i.v. twice a week, Fig. 6E): 42 days
- Survival event flag (1 = event, 0 = censored), individual mice (KPC cells; WT + Gemcitabine, Fig. 6D source data): 0 and 1
- Survival, Days (individual mice) (KPC cells; WT Gemcitabine group, Fig. 6D source data, event flag in WT + Gemcitabine): 50 days and 33 days and 45 days
- Cp (Gemcitabine) ([2]; Figure 5 G, H, I, KO mice, 5 Minutes, individual mice): 667.756 µg/mL and 701.121 µg/mL and 742.057 µg/mL and 708.576 µg/mL and 1006.774 µg/mL
- Cp (Gemcitabine) ([2]; Figure 5 G, H, I, KO mice, 10 Minutes, individual mice): 1196.136 µg/mL and 1117.096 µg/mL and 1176.76 µg/mL and 1333.848 µg/mL and 1383.016 µg/mL and 1407.258 µg/mL
- Cp (Gemcitabine) ([2]; Figure 5 G, H, I, KO mice, 15 Minutes, individual mice): 1417.457 µg/mL and 1463.209 µg/mL and 1417.045 µg/mL and 1464.236 µg/mL and 1528.485 µg/mL and 1605.582 µg/mL
- Cp (Gemcitabine) ([2]; Figure 5 G, H, I, KO mice, 30 Minutes, individual mice): 1020.435 µg/mL and 1043.589 µg/mL and 1004.789 µg/mL and 686.314 µg/mL and 637.597 µg/mL
- Cp (Gemcitabine) ([2]; Figure 5 G, H, I, KO mice, 60 Minutes, individual mice): 806.557 µg/mL and 703.249 µg/mL and 814.631 µg/mL and 838.872 µg/mL and 677.262 µg/mL
- Cp (Gemcitabine) ([2]; Figure 5 G, H, I, KO mice, 120 Minutes, individual mice): 1007.916 µg/mL and 1001.638 µg/mL and 923.671 µg/mL and 928.827 µg/mL and 1022.245 µg/mL
- Cp (Gemcitabine) ([2]; Figure 5 G, H, I, KO mice, 240 Minutes, individual mice): 131.108 µg/mL and 117.705 µg/mL and 128.911 µg/mL and 104.939 µg/mL and 51.416 µg/mL and 148.894 µg/mL
- Cp (Gemcitabine) ([2]; Figure 5 G, H, I, WT mice, 5 Minutes, individual mice): 473.332 µg/mL and 486.741 µg/mL and 465.952 µg/mL and 485.933 µg/mL and 493.479 µg/mL
- Cp (Gemcitabine) ([2]; Figure 5 G, H, I, WT mice, 10 Minutes, individual mice): 654.272 µg/mL and 654.234 µg/mL and 642.732 µg/mL and 677.281 µg/mL and 755.524 µg/mL
- Cp (Gemcitabine) ([2]; Figure 5 G, H, I, WT mice, 15 Minutes, individual mice): 869.257 µg/mL and 882.561 µg/mL and 865.564 µg/mL and 871.549 µg/mL and 735.964 µg/mL
- Cp (Gemcitabine) ([2]; Figure 5 G, H, I, WT mice, 30 Minutes, individual mice): 865.074 µg/mL and 694.859 µg/mL and 1051.246 µg/mL and 934.229 µg/mL and 1018.271 µg/mL
- Cp (Gemcitabine) ([2]; Figure 5 G, H, I, WT mice, 60 Minutes, individual mice): 691.965 µg/mL and 701.388 µg/mL and 530.199 µg/mL and 662.975 µg/mL and 688.86 µg/mL
- Cp (Gemcitabine) ([2]; Figure 5 G, H, I, WT mice, 120 Minutes, individual mice): 410.29 µg/mL and 371.477 µg/mL and 406.197 µg/mL and 640.633 µg/mL and 369.675 µg/mL
- Cp (Gemcitabine) ([2]; Figure 5 G, H, I, WT mice, 240 Minutes, individual mice): 394.084 µg/mL and 419.478 µg/mL and 409.47 µg/mL and 387.436 µg/mL and 378.97 µg/mL
- Dose in Urine (% of total dose administered) ([2]; Slc28a1+/+ mice, single i.v. dFdC 50 mg/kg): 7.53%
- Dose in Urine (% of total dose administered) [2, 4]: 13.73%
- concentration at 5 min ([2]; mouse, urine, intravenous, 50 mg/kg, Cp (Gemcitabine), Figure 5 G, H, I, KO mice, 5 Minutes, individual mice): 690 µg/mL
- concentration at 30 min ([2]; mouse, urine, intravenous, 50 mg/kg, Cp (Gemcitabine), Figure 5 G, H, I, KO mice, 30 Minutes, individual mice): 995 µg/mL
- concentration at 60 min ([2]; mouse, urine, intravenous, 50 mg/kg, Cp (Gemcitabine), Figure 5 G, H, I, KO mice, 60 Minutes, individual mice): 801 µg/mL
- concentration at 120 min ([2]; mouse, urine, intravenous, 50 mg/kg, Cp (Gemcitabine), Figure 5 G, H, I, KO mice, 120 Minutes, individual mice): 977 µg/mL
- concentration at 5 min ([2]; mouse, urine, intravenous, 50 mg/kg, Cp (Gemcitabine), Figure 5 G, H, I, WT mice, 5 Minutes, individual mice): 447 µg/mL
- concentration at 10 min ([2]; mouse, urine, intravenous, 50 mg/kg, Cp (Gemcitabine), Figure 5 G, H, I, WT mice, 10 Minutes, individual mice): 628 µg/mL
- concentration at 15 min ([2]; mouse, urine, intravenous, 50 mg/kg, Cp (Gemcitabine), Figure 5 G, H, I, WT mice, 15 Minutes, individual mice): 859 µg/mL
- concentration at 30 min ([2]; mouse, urine, intravenous, 50 mg/kg, Cp (Gemcitabine), Figure 5 G, H, I, WT mice, 30 Minutes, individual mice): 725 µg/mL
- concentration at 60 min ([2]; mouse, urine, intravenous, 50 mg/kg, Cp (Gemcitabine), Figure 5 G, H, I, WT mice, 60 Minutes, individual mice): 864 µg/mL
- concentration at 120 min ([2]; mouse, urine, intravenous, 50 mg/kg, Cp (Gemcitabine), Figure 5 G, H, I, WT mice, 120 Minutes, individual mice): 403 µg/mL
- concentration at 240 min ([2]; mouse, urine, intravenous, 50 mg/kg, Cp (Gemcitabine), Figure 5 G, H, I, WT mice, 240 Minutes, individual mice): 400 µg/mL
- renal clearance (CLr) in Slc28a1-/- mice higher than in Slc28a1+/+ mice ([2]; non-compartmentally calculated, single i.v. dFdC 50 mg/kg): 126.63%
